Reference: US9234002B2, “Small peptide specific for lung cancer and application thereof” (Guangzhou Peptide Medical Technology Co., Ltd., priority 2012, dated 2016)

How the values were obtained:
[1] = system: NCI-H1975 (adenocarcinoma) and L78 (squamous carcinoma); assay: Median survival of lung cancer bearing nude mice after treatment; assay type: in vivo, human; details: tumor bearing nude mice, tail vein injection
Description: Two human lung cancer cell lines comprising NCI-H1975 (adenocarcinoma) and L78 (squamous carcinoma) were maintained in RPMI 1640 (GIBCO, Mississauga, Canada) supplemented with 10% heat-inactivated calf serum (HyClone, Logan, Utah) and L-glutamine (Beyotime, Jiangsu, China) in an incubator at 37° C. with 5% CO2. Cells were harvested with trypsin/EDTA, washed with PAS twice and re-suspended in free serum culture medium at a concentration of 5×10^6 cells/mL. The suspended cells (0.2 mL) were inoculated s.c. into the back of nude mice to establish the lung cancer models, respectively. There are twelve nude mice in each group of cancer model. Tumor growth and general states such as mental, diet and weight were monitored periodically. When tumors reached approximately 1 cm in mean diameter, the tumor bearing mice were used in therapeutic efficacy studies.
The tumor size was measured two dimensionally on days 3, 6, 9, 12, 15, 18, 21, 24, 27 and 30 after injection, while mice weight was also determined. The tumor volume was calculated by the formula volume V=(4/3)×π×R1×R2, where R1 is radius 1 and R2 is radius 2 and R1<R2. Growth curves of the tumors were constructed according to these tumor volumes.

[2] = Toxicity of radiotherapeutic agent in mice bearing lung cancer cells (hematology, serum biochemistry, histopathology); assay type: in vivo
Description: After treatment with radiotherapeutic agent for three weeks, the mice were sacrificed and the major tissues or organs such as blood, liver, kidneys, heart, lungs and spleen were removed completely. A routine blood test was performed using an automatic hematology analyzer to measure the following parameters: white blood cell (WBC), red blood cell (RBC) and platelet (PLT) count. Clinical biochemicals parameters measured with an automated biochemical analyzer were aspartate transferase (AST), alanine transferase (ALT), blood urea nitrogen (BUN) and creatinine (CRE). Histopathological and ultrastructural observations were performed on the preserved organs and tissues stated above.

[3] = mice bearing lung cancer (24 h)

Structure (SMILES): [131I-].[Na+] [^131I, iodine-131]
- median survival time [1]: 42 days
- ALT [2, 3]: 60.7 ± 7.8 U/L
- AST [2, 3]: 171.7 ± 0.8 U/L
- BUN [2, 3]: 9.4 ± 1.3 mmol/L
- CRE [2, 3]: 42.7 ± 3.8 µmol/L
- PLT [2, 3]: 991.2 ± 52.5 G/L
- RBC [2, 3]: 7.8 ± 0.2 T/L
- WBC [2, 3]: 13.6 ± 0.7 G/L
- leukocyte count versus control ([2]; mice bearing lung cancer cells): decrease
